Experimental data published in EP4512396A1, “TARGETED COVALENT INHIBITORS FOR CARBONIC ANHYDRASES” (Vilnius University, priority 2023, dated 2025).

Assays:
CAIX = test: stopped-flow CO2 hydration assay before and after dialysis (irreversible enzyme inactivation); type: biochemical, human; conditions: for catalytic activity of CAIX after 32 hours of dialysis: […] CAIX incubated 2 h with 15 µM AV19-37 or 100 µM AV19-36, dialyzed in Tris buffer pH 7
CAIII [1] = biological target: T1, CAIII (Homo sapiens, UniProt P07451); test: Q-TOF mass spectrometry of covalent binding; conditions: CAIII in the presence of ligand
T1 sequence (P07451 whole entry): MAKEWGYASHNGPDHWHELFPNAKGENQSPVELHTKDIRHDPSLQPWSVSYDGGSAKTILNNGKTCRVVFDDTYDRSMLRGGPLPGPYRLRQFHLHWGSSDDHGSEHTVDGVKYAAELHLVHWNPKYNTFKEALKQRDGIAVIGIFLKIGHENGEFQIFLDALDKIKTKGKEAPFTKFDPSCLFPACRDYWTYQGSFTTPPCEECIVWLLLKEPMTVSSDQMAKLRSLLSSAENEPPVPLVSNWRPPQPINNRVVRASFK

CA IV = CA IV (Homo sapiens, UniProt P22748); test: biochemical
Chain of CA IV (P22748 19-284): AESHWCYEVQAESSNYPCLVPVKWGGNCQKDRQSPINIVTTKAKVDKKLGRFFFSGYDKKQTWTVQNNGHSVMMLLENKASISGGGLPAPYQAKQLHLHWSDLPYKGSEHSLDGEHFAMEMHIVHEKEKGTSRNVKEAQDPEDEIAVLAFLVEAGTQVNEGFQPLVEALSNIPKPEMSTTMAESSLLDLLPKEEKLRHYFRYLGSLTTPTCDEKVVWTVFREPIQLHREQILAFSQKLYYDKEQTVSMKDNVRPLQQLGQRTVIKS

CAIII [2] = biological target: T1, CAIII; test: fluorescent thermal shift assay (FTSA); type: binding
CA XIV = CA XIV (Homo sapiens, UniProt Q9ULX7); test: fluorescent thermal shift assay (FTSA); type: binding; conditions: FTSA at 37 °C and pH 7.0, read-out: Kd_app
Chain of CA XIV (Q9ULX7 16-337): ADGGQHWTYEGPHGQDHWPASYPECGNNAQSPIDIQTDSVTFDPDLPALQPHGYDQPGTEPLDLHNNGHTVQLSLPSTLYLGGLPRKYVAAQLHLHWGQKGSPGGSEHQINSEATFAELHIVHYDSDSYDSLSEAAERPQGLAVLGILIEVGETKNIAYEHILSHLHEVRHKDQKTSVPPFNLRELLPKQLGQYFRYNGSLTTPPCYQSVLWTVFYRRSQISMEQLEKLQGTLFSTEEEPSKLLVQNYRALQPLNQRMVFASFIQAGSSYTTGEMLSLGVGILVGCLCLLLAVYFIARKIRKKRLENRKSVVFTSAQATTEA

CA VB = CA VB (Homo sapiens, UniProt Q9Y2D0); test: fluorescent thermal shift assay (FTSA); type: binding; conditions: FTSA at 37 °C and pH 7.0, read-out: Kd_app
Chain of CA VB (Q9Y2D0 34-317): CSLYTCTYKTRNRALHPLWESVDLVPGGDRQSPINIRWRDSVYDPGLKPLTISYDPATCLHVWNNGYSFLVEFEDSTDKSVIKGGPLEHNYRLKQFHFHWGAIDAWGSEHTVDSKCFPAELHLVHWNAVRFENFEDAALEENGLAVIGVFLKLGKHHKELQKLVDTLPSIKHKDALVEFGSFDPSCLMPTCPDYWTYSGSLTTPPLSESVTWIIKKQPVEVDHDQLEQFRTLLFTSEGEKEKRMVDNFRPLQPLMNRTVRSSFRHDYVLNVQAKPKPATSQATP

CAXII = CAXII (Homo sapiens, UniProt O43570); test: fluorescent thermal shift assay (FTSA); type: binding; conditions: FTSA at 37 °C and pH 7.0, read-out: Kd_app
Chain of CAXII (O43570 25-354): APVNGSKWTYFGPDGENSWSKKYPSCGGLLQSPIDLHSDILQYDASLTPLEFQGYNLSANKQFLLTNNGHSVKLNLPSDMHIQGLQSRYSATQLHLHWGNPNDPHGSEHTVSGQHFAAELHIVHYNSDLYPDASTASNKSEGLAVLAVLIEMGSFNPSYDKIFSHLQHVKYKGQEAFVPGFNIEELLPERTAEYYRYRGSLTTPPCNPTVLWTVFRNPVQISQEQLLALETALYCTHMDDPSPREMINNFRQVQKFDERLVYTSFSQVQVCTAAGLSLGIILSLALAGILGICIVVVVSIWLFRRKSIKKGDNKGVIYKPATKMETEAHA

CA VA = CA VA (Homo sapiens, UniProt P35218); conditions: pH 7
Chain of CA VA (P35218 39-305): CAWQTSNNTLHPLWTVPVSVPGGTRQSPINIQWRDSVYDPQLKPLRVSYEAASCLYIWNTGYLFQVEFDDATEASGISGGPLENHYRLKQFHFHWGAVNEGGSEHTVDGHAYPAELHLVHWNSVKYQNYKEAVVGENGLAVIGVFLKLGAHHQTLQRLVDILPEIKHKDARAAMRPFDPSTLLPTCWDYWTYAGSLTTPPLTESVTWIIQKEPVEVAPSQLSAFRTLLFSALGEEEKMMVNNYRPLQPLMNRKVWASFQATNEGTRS

CAXIII = CAXIII (Homo sapiens, UniProt Q8N1Q1); test: fluorescent thermal shift assay (FTSA); type: binding; conditions: FTSA at 37 °C and pH 7.0, read-out: Kd_app
Chain of CAXIII (Q8N1Q1 whole entry): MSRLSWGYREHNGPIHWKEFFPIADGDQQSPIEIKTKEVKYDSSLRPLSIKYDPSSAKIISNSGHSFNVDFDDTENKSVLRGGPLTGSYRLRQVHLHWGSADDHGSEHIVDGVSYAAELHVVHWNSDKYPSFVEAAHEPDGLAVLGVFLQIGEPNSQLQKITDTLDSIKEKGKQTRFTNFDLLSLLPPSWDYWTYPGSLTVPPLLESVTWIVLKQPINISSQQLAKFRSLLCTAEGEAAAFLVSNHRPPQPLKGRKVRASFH

CAVII = CAVII (Homo sapiens, UniProt P43166); test: fluorescent thermal shift assay (FTSA); type: binding; conditions: FTSA at 37 °C and pH 7.0, read-out: Kd_app
Chain of CAVII (P43166 whole entry): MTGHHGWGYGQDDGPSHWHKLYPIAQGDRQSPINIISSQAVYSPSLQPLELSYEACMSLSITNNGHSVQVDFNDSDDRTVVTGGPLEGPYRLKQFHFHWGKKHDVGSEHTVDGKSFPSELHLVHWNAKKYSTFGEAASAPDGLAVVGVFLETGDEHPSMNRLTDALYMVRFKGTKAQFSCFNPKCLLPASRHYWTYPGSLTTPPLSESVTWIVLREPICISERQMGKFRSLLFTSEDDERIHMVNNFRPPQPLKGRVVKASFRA

CAVI = CAVI (Homo sapiens, UniProt P23280); test: fluorescent thermal shift assay (FTSA); type: binding; conditions: FTSA at 37 °C and pH 7.0, read-out: Kd_app
Chain of CAVI (P23280 21-290 limits assumed): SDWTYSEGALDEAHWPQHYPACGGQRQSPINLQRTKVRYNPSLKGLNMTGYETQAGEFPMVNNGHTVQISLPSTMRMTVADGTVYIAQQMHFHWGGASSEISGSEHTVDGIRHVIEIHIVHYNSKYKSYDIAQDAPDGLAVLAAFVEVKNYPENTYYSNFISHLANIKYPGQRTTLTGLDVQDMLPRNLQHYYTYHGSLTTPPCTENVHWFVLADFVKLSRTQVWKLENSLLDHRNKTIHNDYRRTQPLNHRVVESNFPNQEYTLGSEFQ

| SMILES | catalytic activity of CAIX after 32 hours of dialysis (CAIX) | catalytic activity of CAIX after 2 hours of incubation with compound (CAIX; […] CAIX, 15 µM AV19-37, CO2 hydration, 25 °C, pH 7.5) | covalent modification by MS (CAIII [1]) | Kd (CA IV) | Kd (CAIII [2]) | Kd (CA XIV) | Kd (CA VB) | Kd (CAXII) | Kd (CA VA) | Kd (CAXIII) | Kd (CAVII) | Kd (CAVI) |
| --- | --- | --- | --- | --- | --- | --- | --- | --- | --- | --- | --- | --- |
| CC(=O)OCCSc1c(F)c(F)c(S(N)(=O)=O)c(F)c1F [AV19-36, 2-((2,3,5,6-tetrafluoro-4-sulfamoylphenyl)thio)ethyl acetate] | partially restored its catalytic activity | – | – | – | – | – | – | – | – | – | – | – |
| CC(=O)OCCS(=O)(=O)c1c(F)c(F)c(S(N)(=O)=O)c(F)c1NC1CCCCCCC1 [AV19-37, 2-((2-(cyclooctylamino)-3,5,6-trifluoro-4-sulfamoylphenyl)sulfonyl)ethyl acetate] | not restored | lost its catalytic activity | did not show a covalent modification | – | – | – | – | – | – | – | – | – |
| NS(=O)(=O)c1c(F)c(F)c(S(=O)(=O)CCOC(=O)Cc2ccccc2)c(F)c1F [AV21-25, 2-((2,3,5,6-tetrafluoro-4-sulfamoylphenyl)sulfonyl)ethyl 2-phenylacetate] | – | – | – | 45 nM | 18000 nM | 0.28 nM | 0.017 nM | 0.072 nM | 2.5 nM | 0.012 nM | 0.83 nM | 0.36 nM |
